# From patent US20230255864A1, “NOVEL COMPOSITIONS COMBINING HEMP DERIVATIVES AND AT LEAST ONE PEPTIDE AND USE THEREOF” (FRANCE COSMEPHYL-LAB, priority 2020, published 2023)
# Where “and” joins values, the source holds several entries; their conditions need not be identical. Equal values may be shown once. Read-outs that look alike come from different tables or passages of the source.
# Experiments:
# [1] = Cell viability of murine macrophages (WST-1 mitochondrial respiration), in parallel with NO release; assay type: cell-based; settings: mouse, read-out: Cell viability (% as compared to the negative control)
# Experimental: (§1) MURINS RAW 267.4 Macrophage cell line (Sigma-Aldrich, No. P6110401, Lot. 091006), low number of passages (less than 50).
# (§2) Complete medium: DMEM with stabilized L-glutamine (Dulbecco's Minimum Essential Medium, PAN BIOTECH. Lot 974251) supplemented with Penicillin 100 IU/ml and streptomycin 100 μg/m1 (PAN BIOTECH, Lot 225614), and 10% inactivated calf serum (PAN BIOTECH, Lot P460518), pH 7.2, freshly prepared, stored for less than 3 weeks.
# (§3) Cannabidiol (CBD) is diluted in DMSO (10 mg/mL storage solution), and subjected to an ultrasonic bath for 20 minutes. The Neutrazen™ solution is diluted in PBS (Phosphate buffer saline, Sigma-Aldrich).
# (§4) RAW 267.4 murine macrophages were inoculated into 48-well tissue culture plates at a concentration of 1.10^5 cells/ml (200 μl/well) and incubated for 24 hours at 37° C. (5% CO2).
# (§5) At the end of the incubation period, the culture medium was replaced with 200 μl of medium containing the appropriate concentrations of the material to be tested, and the cells were incubated at 37° C. (5% CO2) for one hour.
# (§6) At the end of the incubation period, pro-inflammatory E. coli LPS was added to the cell cultures (1 μg/ml. Then the cells were incubated at 37° C. (5% CO2) for 24 hours.
# (§7) In parallel with the evaluation of the release of NO, the cell viability was measured to validate the tests. Vital Stain Reagent WST-1 was used to measure cellular mitochondrial respiration. For this, the culture medium was decanted and 100 μl of WST-1 reagent ( 1/10 dilution) were added to each well. After an incubation period of 30 min at 37° C. (5% CO2), the Optical Density (OD) of each well was read at a wavelength of 450 nm by an Infinite M200 Pro fluorescence-luminescence reader (TECAN). The results obtained for the wells treated with the test material were compared with those of the untreated control wells (DMSO, 100% viability) and converted into percentage values.
# (§8) Inhibition of NO release and inhibition of cell viability were expressed as a percentage relative to the negative controls: […]
# (§9) The concentrations of test material causing a 50% decrease in NO release (IC50 (NO release)) and a 50% decrease in cell viability (IC50 (cell viability)) respectively were calculated using TableCurve software Version 2.0.
# (§10) Analysis of the anti-inflammatory activity and of the cell viability of the cannabidiol/palmitoyl tripeptide-8 (Neutrazen™) association in a mixture by isobologram analysis. For each concentration of Neutrazen™ (0.01, 0.025, 0.05 and 0.1%), different concentrations of CBD are tested (0.01, 0.025, 0.05, 0.1, 0.25, 0.5, 1 and 2.5%) to determine both the production of NO and cell viability.
# (§11) The results obtained with the different mixtures of CBD and Neutrazen™ made it possible to calculate the pairs of concentrations corresponding to a 50% reduction in the production of NO and a 50% reduction in cell viability.
# [2] = system: RAW 267.4 murine macrophages; test: as above; assay type: cell-based
# Experimental: as §1, §2, §3, §4, §5, §6, §7, §8, §9, §10, §11
smiles,measurement,setting,value
C=C(C)[C@@H]1CCC(C)=C[C@H]1c1c(O)cc(CCCCC)cc1O [CBD],"viability at 25 h, 0.01 weight %","[1]; pH 7.2, CBD 0.01 weight % in mixture with NeutraZen 0.01%",98.6%
same,"viability at 25 h, 0.01 weight %","[1]; pH 7.2, CBD 0.01 weight % in mixture with NeutraZen 0.025%",102%
same,"viability at 25 h, 0.01 weight %","[1]; pH 7.2, CBD 0.01 weight % in mixture with NeutraZen 0.05%",98%
same,"viability at 25 h, 0.01 weight %","[1]; pH 7.2, CBD 0.01 weight % in mixture with NeutraZen 0.1%",101%
same,"viability at 25 h, 0.025 weight %","[1]; pH 7.2, CBD 0.025 weight % in mixture with NeutraZen 0.01%",99.7%
same,"viability at 25 h, 0.025 weight %","[1]; pH 7.2, CBD 0.025 weight % in mixture with NeutraZen 0.025%",104%
same,"viability at 25 h, 0.025 weight %","[1]; pH 7.2, CBD 0.025 weight % in mixture with NeutraZen 0.05%",99.1%
same,"viability at 25 h, 0.025 weight %","[1]; pH 7.2, CBD 0.025 weight % in mixture with NeutraZen 0.1%",99.7%
same,"viability at 25 h, 0.05 weight %","[1]; pH 7.2, CBD 0.05 weight % in mixture with NeutraZen 0.01%",97.7%
same,"viability at 25 h, 0.05 weight %","[1]; pH 7.2, CBD 0.05 weight % in mixture with NeutraZen 0.025%",96.2%
same,"viability at 25 h, 0.05 weight %","[1]; pH 7.2, CBD 0.05 weight % in mixture with NeutraZen 0.05%",101%
same,"viability at 25 h, 0.05 weight %","[1]; pH 7.2, CBD 0.05 weight % in mixture with NeutraZen 0.1%",103%
same,"viability at 25 h, 0.1 weight %","[1]; pH 7.2, CBD 0.1 weight % in mixture with NeutraZen 0.01%",102%
same,"viability at 25 h, 0.1 weight %","[1]; pH 7.2, CBD 0.1 weight % in mixture with NeutraZen 0.025%",100%
same,"viability at 25 h, 0.1 weight %","[1]; pH 7.2, CBD 0.1 weight % in mixture with NeutraZen 0.05%",100%
same,"viability at 25 h, 0.1 weight %","[1]; pH 7.2, CBD 0.1 weight % in mixture with NeutraZen 0.1%",97.1%
same,"viability at 25 h, 0.25 weight %","[1]; pH 7.2, CBD 0.25 weight % in mixture with NeutraZen 0.01%",92.2%
same,"viability at 25 h, 0.25 weight %","[1]; pH 7.2, CBD 0.25 weight % in mixture with NeutraZen 0.025%",88.5%
same,"viability at 25 h, 0.25 weight %","[1]; pH 7.2, CBD 0.25 weight % in mixture with NeutraZen 0.05%",98.6%
same,"viability at 25 h, 0.25 weight %","[1]; pH 7.2, CBD 0.25 weight % in mixture with NeutraZen 0.1%",95.7%
same,"viability at 25 h, 0.5 weight %","[1]; pH 7.2, CBD 0.5 weight % in mixture with NeutraZen 0.01%",6.34%
same,"viability at 25 h, 0.5 weight %","[1]; pH 7.2, CBD 0.5 weight % in mixture with NeutraZen 0.025%",6.95%
same,"viability at 25 h, 0.5 weight %","[1]; pH 7.2, CBD 0.5 weight % in mixture with NeutraZen 0.05%",7.76%
same,"viability at 25 h, 0.5 weight %","[1]; pH 7.2, CBD 0.5 weight % in mixture with NeutraZen 0.1%",8.56%
same,"viability at 25 h, 1 weight %","[1]; pH 7.2, CBD 1 weight % in mixture with NeutraZen 0.01%",5.66%
same,"viability at 25 h, 1 weight %","[1]; pH 7.2, CBD 1 weight % in mixture with NeutraZen 0.025%",5.19%
same,"viability at 25 h, 1 weight %","[1]; pH 7.2, CBD 1 weight % in mixture with NeutraZen 0.05%",7.74%
same,"viability at 25 h, 1 weight %","[1]; pH 7.2, CBD 1 weight % in mixture with NeutraZen 0.1%",8.58%
same,"viability at 25 h, 2.5 weight %","[1]; pH 7.2, CBD 2.5 weight % in mixture with NeutraZen 0.01%",7.21%
same,"viability at 25 h, 2.5 weight %","[1]; pH 7.2, CBD 2.5 weight % in mixture with NeutraZen 0.025%",4.12%
same,"viability at 25 h, 2.5 weight %","[1]; pH 7.2, CBD 2.5 weight % in mixture with NeutraZen 0.05%",8.14%
same,"viability at 25 h, 2.5 weight %","[1]; pH 7.2, CBD 2.5 weight % in mixture with NeutraZen 0.1%",8.93%
same,"viability at 25 h, 0.01 weight %","[1]; pH 7.2, sample alone at 0.01 weight %",99.4%
same,"viability at 25 h, 0.025 weight %","[1]; pH 7.2, sample alone at 0.025 weight %",98.3%
same,"viability at 25 h, 0.05 weight %","[1]; pH 7.2, sample alone at 0.05 weight %",97.9%
same,"viability at 25 h, 0.1 weight %","[1]; pH 7.2, sample alone at 0.1 weight %",53.1%
same,"viability at 25 h, 0.25 weight %","[1]; pH 7.2, sample alone at 0.25 weight %",8.24%
same,"viability at 25 h, 0.5 weight %","[1]; pH 7.2, sample alone at 0.5 weight %",4.73%
same,"viability at 25 h, 1 weight %","[1]; pH 7.2, sample alone at 1 weight %",2.9%
same,Cell viability (% as compared to the negative control),[2]; CBD 0.01 weight % in mixture with NeutraZen 0.01%,99.54% and 101.55%
same,Cell viability (% as compared to the negative control),[2]; CBD 0.01 weight % in mixture with NeutraZen 0.025%,101.86%
same,Cell viability (% as compared to the negative control),[2]; CBD 0.01 weight % in mixture with NeutraZen 0.05%,101.83% and 101.55%
same,Cell viability (% as compared to the negative control),[2]; CBD 0.01 weight % in mixture with NeutraZen 0.1%,100.00%
same,Cell viability (% as compared to the negative control),[2]; CBD 0.025 weight % in mixture with NeutraZen 0.01%,99.24% and 100.77%
same,Cell viability (% as compared to the negative control),[2]; CBD 0.025 weight % in mixture with NeutraZen 0.025%,100.76% and 101.08%
same,Cell viability (% as compared to the negative control),[2]; CBD 0.025 weight % in mixture with NeutraZen 0.05%,101.22% and 100.77%
same,Cell viability (% as compared to the negative control),[2]; CBD 0.025 weight % in mixture with NeutraZen 0.1%,100.15%
same,Cell viability (% as compared to the negative control),[2]; CBD 0.05 weight % in mixture with NeutraZen 0.01%,98.93% and 100.62%
same,Cell viability (% as compared to the negative control),[2]; CBD 0.05 weight % in mixture with NeutraZen 0.025%,96.18% and 100.31%
same,Cell viability (% as compared to the negative control),[2]; CBD 0.05 weight % in mixture with NeutraZen 0.05%,100.61% and 100.62%
same,Cell viability (% as compared to the negative control),[2]; CBD 0.05 weight % in mixture with NeutraZen 0.1%,99.54% and 100.00%
same,Cell viability (% as compared to the negative control),[2]; CBD 0.1 weight % in mixture with NeutraZen 0.01%,100.00% and 102.63%
same,Cell viability (% as compared to the negative control),[2]; CBD 0.1 weight % in mixture with NeutraZen 0.025%,96.34% and 99.23%
same,Cell viability (% as compared to the negative control),[2]; CBD 0.1 weight % in mixture with NeutraZen 0.05%,100.00%
same,Cell viability (% as compared to the negative control),[2]; CBD 0.1 weight % in mixture with NeutraZen 0.1%,99.54%
same,Cell viability (% as compared to the negative control),[2]; CBD 0.25 weight % in mixture with NeutraZen 0.01%,89.77% and 93.81%
same,Cell viability (% as compared to the negative control),[2]; CBD 0.25 weight % in mixture with NeutraZen 0.025%,88.09% and 89.16%
same,Cell viability (% as compared to the negative control),[2]; CBD 0.25 weight % in mixture with NeutraZen 0.05%,100.31%
same,Cell viability (% as compared to the negative control),[2]; CBD 0.25 weight % in mixture with NeutraZen 0.1%,97.40% and 98.61%
same,Cell viability (% as compared to the negative control),[2]; CBD 0.5 weight % in mixture with NeutraZen 0.01%,7.18% and 6.81%
same,Cell viability (% as compared to the negative control),[2]; CBD 0.5 weight % in mixture with NeutraZen 0.025%,7.33% and 7.43%
same,Cell viability (% as compared to the negative control),[2]; CBD 0.5 weight % in mixture with NeutraZen 0.05%,9.16% and 7.59%
same,Cell viability (% as compared to the negative control),[2]; CBD 0.5 weight % in mixture with NeutraZen 0.1%,9.47% and 8.20%
same,Cell viability (% as compared to the negative control),[2]; CBD 1 weight % in mixture with NeutraZen 0.01%,5.95% and 5.57%
same,Cell viability (% as compared to the negative control),[2]; CBD 1 weight % in mixture with NeutraZen 0.025%,5.34% and 4.95%
same,Cell viability (% as compared to the negative control),[2]; CBD 1 weight % in mixture with NeutraZen 0.05%,7.43%
same,Cell viability (% as compared to the negative control),[2]; CBD 1 weight % in mixture with NeutraZen 0.1%,8.40% and 7.59%
same,Cell viability (% as compared to the negative control),[2]; CBD 2.5 weight % in mixture with NeutraZen 0.01%,5.65% and 4.33%
same,Cell viability (% as compared to the negative control),[2]; CBD 2.5 weight % in mixture with NeutraZen 0.025%,4.49%
same,Cell viability (% as compared to the negative control),[2]; CBD 2.5 weight % in mixture with NeutraZen 0.05%,7.79% and 6.97%
same,Cell viability (% as compared to the negative control),[2]; CBD 2.5 weight % in mixture with NeutraZen 0.1%,7.63% and 6.35%
same,Cell viability (% as compared to the negative control),[2]; sample alone at 0.01 weight %,99.69% and 100.15%
same,Cell viability (% as compared to the negative control),[2]; sample alone at 0.025 weight %,99.85% and 99.23%
same,Cell viability (% as compared to the negative control),[2]; sample alone at 0.05 weight %,94.50% and 93.81%
same,Cell viability (% as compared to the negative control),[2]; sample alone at 0.1 weight %,51.15% and 55.11%
same,Cell viability (% as compared to the negative control),[2]; sample alone at 0.25 weight %,5.65% and 5.73%
same,Cell viability (% as compared to the negative control),[2]; sample alone at 0.5 weight %,3.97% and 3.25%
same,Cell viability (% as compared to the negative control),[2]; sample alone at 1 weight %,1.98% and 1.86%
same,Cell viability (% as compared to the negative control),[2]; sample alone at 2.5 weight %,1.98% and 2.14% and 0.46%
